The data set is described as follows: Portal plasma pharmacokinetics after oral administration in portal vein cannulated, freely moving rats. The format is in vivo, Wistar ST rats. The settings on record: for AUC: 0→4 h after oral administration, mean ± SEM; for bioavailability: plasma, intact compound, oral versus intravenous administration, read-out: bioavailability for 4 hours. The method, then:
SPF Wistar ST rats (6 weeks of age, male, 180 ± 20 g of body weight) were purchased from Japan SLC Inc. (Hamamatsu, Japan). The rats were housed in an air-conditioned room at 22 ± 2°C under cycles of 12 hours dark and 12 hours light and given free access to a commercial diet and water for a week. The rats were then fasted for over 16 hours before the experiments. The present study was approved by the Animal Care and Use Committee at Kagawa University, and the rat treatment conformed to the Rules of Animal Experiments at Kagawa University. After fasting, the rats were cannulated with a polyethylene tube (PE-50; 0.58 mm I.D., 0.965 mm O.D.) into the jugular vein, portal vein, or bile duct under anesthesia with isoflurane inhalation using a WP-SAA01 (LMS Co., Ltd., Tokyo, Japan). A small hole was made in the vein or duct using pointed scissors and cannulated with the polyethylene tube. After inserting the tube, it was fixed at the edge of the vein or duct. The jugular vein and portal vein cannulas penetrated under the skin and were then tied at the back of the rats, and the bile duct cannula was tied at the abdomen of the rats. Bile duct-cannulated rats were then restrained in a Bollman cage (Natsume Seisakusho Co., Ltd., Tokyo, Japan). Before further experiments, the rats were allowed to recover from anesthesia. 3,4-[…] (300 mg/kg body weight; 936.51 μmol/kg) dissolved in 50% polyethylene glycol aqueous solution was administered orally via a stomach tube to the portal vein cannulated rats. Blood samples (450 μL) were then collected using a heparinized syringe attached to the cannula before administration and 5, 15, 30, 60, 120, and 240 min after administration. Urine was also collected before administration and 0 to 2 h and 2 to 4 h after administration. For intravenous administration, 3,4-[…] (10 mg/kg; 31.22 μmol/kg) was injected into the jugular vein, and blood (450 μL) was collected using a heparinized syringe before administration and 5, 15, 30, 60, 120, and 240 min after administration via the jugular vein cannula. The blood (450 μL) collected was immediately cooled on ice and centrifuged at 15,000 rpm for 5 min at 4°C to obtain over 200 μL plasma. Urine was also collected before administration and 0 to 2 h and 2 to 4 h after administration. Bile was collected via the bile duct cannula before administration and 0 to 2 h and 2 to 4 h after intravenous administration. The collected plasma, urine, and bile were immediately stored in an ice box until further analyses. HT (oral administration: 100 mg/kg; 648.66 μmol/kg, intravenous administration: 10 mg/kg; 64.87 μmol/kg) and Ole (oral administration: 300 mg/kg; 555.02 μmol/kg, intravenous administration: 10 mg/kg; 18.50 μmol/kg) were investigated using the same method as described above. Metabolites were deconjugated by using β-glucuronidase (500 U) and sulfatase (50 U) in 50 μL 625 mM MOPS (pH 6.8), which was added to 200 μL of plasma, urine, or bile. The mixture was incubated for 45 min at 37°C and subjected to extraction using QuEChERS [33]. […] Shimadzu, Kyoto, Japan) equipped with a Shim-pack XR-ODS column (3.0 mm I.D. × 100 mm; Shimadzu, Kyoto, Japan) at 40°C with a mobile phase of 0.5% TFA-1% acetonitrile aqueous solution (A) and 0.5% TFA-75% acetonitrile aqueous solution (B). The elution conditions are described as follows: isocratic elution of 0% B was maintained for 4.0 min; linear gradient 0 to 4% B, 4.0-4.5 min; linear gradient 4.0-16.0% B, 4.5-16.0 min; linear gradient 16.0-100% B, 16.0-25.0 min; isocratic elution of 100% B, 25.0-26.0 min; and linear gradient 100 to 0% B, 26.0-26.1 min, with a flow rate of 0.5 mL/min. Injection volume was 50 μL. All eluted peaks were detected at 279 nm with a diode array detector (SPD-M20A; Shimadzu, Kyoto, Japan). The absorption of 3,4-[…], and Ole was evaluated by dose-normalized 4 h area under the curve (AUC0→4 h/Dose) and C max/Dose values (Table 2). […]

Setting [1] is: analyte Ole in portal plasma after oral administration.
Where [2] appears, read: male, Wistar ST, rat, 300 mg/kg, analyte Ole in portal plasma after oral administration.
Where [3] appears, read: analyte HT in portal plasma after oral administration.
Setting [4] is: analyte HT in portal plasma after oral administration, listed as HT.
The mark [5] stands for this setting: male, Wistar ST, rat, portal vein plasma, 100 mg/kg, analyte HT in portal plasma after oral administration.
Setting [6] is: analyte HVA in portal plasma after oral administration.
[7] abbreviates: analyte HVAOH in portal plasma after oral administration.

Results on 3 molecules are retold here after PMC4745926, “Absorption, Metabolism, and Excretion by Freely Moving Rats of 3,4-DHPEA-EDA and Related Polyphenols from Olive Fruits (Olea europaea)” (Journal of Nutrition and Metabolism, 2016).

Several values for one entry are separate records, joined by “and”; a condition that tells them apart may be missing. Equal values may be shown once. Entries after “also recorded” stand apart in the source; their conditions may differ. Read-outs that look alike come from different tables or passages of the source.

By Cmax is commonly meant the highest concentration seen after dosing. The term Tmax denotes the time at which the peak concentration occurs. Usually AUC stands for the area under the concentration-time curve, a measure of exposure. By bioavailability is commonly meant the share of a dose that reaches the circulation, judged against a reference dose that is usually intravenous.

With `C/C=C1/[C@H](O[C@@H]2O[C@H](CO)[C@@H](O)[C@H](O)[C@H]2O)OC=C(C(=O)OC)[C@H]1CC(=O)OCCc1ccc(O)c(O)c1` [Oleuropein, reference compound], under setting [1], the “AUC/Dose (AUC0→4 h-i.g./Dosei.g.)” value turned out to be 1.8 ± 0.4 μM·min·kg/μmol and the “C max/Dose” value was 0.021 ± 0.006 μM·kg/μmol. Besides, the “AUC/Dose (AUC0→4 h-i.g./Dosei.g.)” value (analyte Ole in portal plasma after oral administration, listed as Ole) amounted to 1.8 μM·min·kg/μmol. For the same molecule, under setting [2], the highest concentration (Cmax) is 11.9 ± 3.2 µM and the Tmax is 5 min. Moreover, the AUC (male, Wistar ST, rat, 300 mg/kg, analyte Ole in portal plasma, triplicate, read-out: AUC (converted)) was 16.9 µM·h. In addition, the bioavailability (male, Wistar ST, rat) worked out at 0.5%.
Take `OCCc1ccc(O)c(O)c1` [Hydroxytyrosol, 2-(3,4-dihydroxyphenyl) ethyl alcohol, reference compound]: under setting [3], the “AUC/Dose (AUC0→4 h-i.g./Dosei.g.)” value is recorded as 51.1 ± 8.5 μM·min·kg/μmol and the “C max/Dose” value is 0.61 ± 0.089 μM·kg/μmol. Under setting [4], the “AUC/Dose (AUC0→4 h-i.g./Dosei.g.)” value amounted to 51.1 μM·min·kg/μmol and the “C max/Dose” value was determined as 0.61 μM·kg/μmol. Further, the “AUC/Dose (AUC0→4 h-i.g./Dosei.g.)” value (analyte HT in portal plasma after oral administration, listed as hydroxytyrosol) is on record as 51.1 μM·min·kg/μmol. The bioavailability (male, Wistar ST, rat) was found to be 13.1%. Moreover, under setting [5], the Cmax stood at 395 ± 58 µM and the Tmax was 15 min. The AUC (male, Wistar ST, rat, portal vein plasma, 100 mg/kg, analyte HT in portal plasma, triplicate, read-out: AUC (converted)) was 553 µM·h.
As to `CC=C(C=O)C(CC=O)CC(=O)OCCc1ccc(O)c(O)c1` (stereo not drawn) [3,4-DHPEA-EDA, 3,4-dihydroxyphenylethyl elenolate dialdehydic form], the “AUC/Dose (AUC0→4 h-i.g./Dosei.g.)” value is 36.4 μM·min·kg/μmol and 36.4 ± 5.9 μM·min·kg/μmol (Total of detected analytes in portal plasma after oral administration); 27.7 μM·min·kg/μmol and 27.7 ± 3.3 μM·min·kg/μmol under setting [3]; 4.5 μM·min·kg/μmol and 4.5 ± 1.8 μM·min·kg/μmol under setting [6]; 4.2 μM·min·kg/μmol and 4.2 ± 0.8 μM·min·kg/μmol under setting [7]. For the same molecule, the AUC by setting is: (Total of detected analytes in portal plasma) 567.492 ± 92.322 µM·h; (analyte HT in portal plasma, triplicate) 432.25 ± 51.718 µM·h; (analyte HVA in portal plasma, triplicate) 69.667 ± 27.442 µM·h; (analyte HVAOH in portal plasma, triplicate) 65.575 ± 13.16 µM·h. For the same molecule, for the setting “after oral administration, 300 mg/kg, 936.51 μmol/kg, 300 mg/kg”, the “Detection of parent 3,4-DHPEA-EDA in portal plasma” value was “not observed; also recorded: not detected; also recorded: could not detect”. For the same molecule, the “C max/Dose” value is 0.22 μM·kg/μmol under setting [3]; 0.03 μM·kg/μmol and 0.03 ± 0.007 μM·kg/μmol under setting [6]; 0.03 μM·kg/μmol and 0.03 ± 0.002 μM·kg/μmol under setting [7]. Also, the Cmax came out at 179 ± 45.3 µM under setting [3], 21.5 ± 6.9 µM under setting [6] and 22.2 ± 2 µM under setting [7]. In addition, the T max was 30 min under setting [3], 60 min under setting [6] and 30 min under setting [7]. Besides, the “total absorption rate, times less than that of HT” value (total AUC0→4 h-i.g./Dosei.g. including metabolites) is given as 2.2 times. The “ratio of AUC/Dose of 3,4-DHPEA-EDA : HT : Ole” value (total including metabolites in portal plasma after oral administration, Ole = 1) is reported as 13.5.
